Experimental data published in US7109338B2, “1,2-disubstituted 1,4-dihydro-4-oxoquinoline compounds” (priority 1999, dated 2006).
In brackets after ≈: the same amount, converted by molar mass.

Key:
[1] = system: HRV21 (47); assay: Anti-rhinovirus spectrum (MTT), HRV21; assay type: cell-based, human rhinovirus; parameters: Anti-Rhinovirus activity, HRV21: unit not given here; details: HRV21
[2] = system: HRV36 (342H); assay: Anti-rhinovirus spectrum (MTT), HRV36; assay type: cell-based, human rhinovirus; parameters: Anti-Rhinovirus activity, HRV36: unit not given here; details: HRV36
[3] = system: human rhinovirus type 1B (HRV 1B, B632); assay: Anti-rhinovirus activity (MTT), HRV1B; assay type: cell-based; parameters: Anti-Rhinovirus activity, HRV1B: unit not given here
[4] = system: HRV33 (1200); assay: Anti-rhinovirus spectrum (MTT), HRV33; assay type: cell-based, human rhinovirus; parameters: Anti-Rhinovirus activity, HRV33: unit not given here; details: HRV33
[5] = system: HRV16 (11757); assay: Anti-rhinovirus spectrum (MTT), HRV16; assay type: cell-based, human rhinovirus; parameters: Anti-Rhinovirus activity, HRV16: unit not given here; details: HRV16
[6] = system: HRV39 (209); assay: Anti-rhinovirus spectrum (MTT), HRV39; assay type: cell-based, human rhinovirus; parameters: Anti-Rhinovirus activity, HRV39: unit not given here; details: HRV39
[7] = system: HRV31 (41F); assay: Anti-rhinovirus spectrum (MTT), HRV31; assay type: cell-based, human rhinovirus; parameters: Anti-Rhinovirus activity, HRV31: unit not given here; details: HRV31
[8] = system: HRV41 (56110); assay: Anti-rhinovirus spectrum (MTT), HRV41; assay type: cell-based, human rhinovirus; parameters: Anti-Rhinovirus activity, HRV41: unit not given here; details: HRV41
[9] = system: coxsackievirus type B4 (CB4,JVB); assay: In vitro anti-picornavirus activity (MTT), CB4; assay type: cell-based; details: HeLa cells, MTT method, 37° C.
[10] = system: Poliovirus type 1 (Polio 1, Sabin); assay: microbe, parasite or virus in culture; assay type: cell-based
[11] = system: HRV1A (E28); assay: Anti-rhinovirus activity (MTT), HRV1A; assay type: cell-based, human rhinovirus; parameters: Anti-Rhinovirus activity, HRV1A: unit not given here
[12] = system: HRV29 (5582); assay: Anti-rhinovirus spectrum (MTT), HRV29; assay type: cell-based, human rhinovirus; parameters: Anti-Rhinovirus activity, HRV29: unit not given here; details: HRV29
[13] = system: HRV14 (1059); assay: Anti-rhinovirus activity (MTT), HRV14; assay type: cell-based, human rhinovirus; parameters: Anti-Rhinovirus activity, HRV14: unit not given here
[14] = system: HeLa-S3 cells; assay: Cytotoxicity (MTT, without virus), HeLa-S3; details: HeLa-S3, no virus, incubated for 4 days
[15] = system: simian rotavirus (SRoV, SA11); assay: In vitro anti-rotavirus activity (plaque reduction), SRoV; assay type: cell-based; details: MA104 cells, four days after infection
Experimental: (§1) Human rotavirus (HROV, Odelia) and simian rotavirus (SRoV, SA11) were used in this experiment. Confluent monolayers of MA104 cells in 6-well multiplate were washed with Eagle MEM containing 0.5 μg/ml of trypsin and were infected with tripsinized-rotavirus (treated with 10 μg/ml of tripsin at 37° C. for 1.5 hr) at 50 PFU per well. After 1 hr of adsorption, the virus inoculum was removed, and the monolayers were washed with Eagle MEM containing 0.5 μg/ml of trypsin and overlaid with Eagle MEM containing 1 μg/ml of trypsin, 0.6% purified agar and the test compounds at various concentrations. The cultures were incubated at 37° C. for 3 days and same overlay medium was added. Four days after infection, the cell sheets were washed with PBS and stained with 1.3% crystal violet in 95% ethanol. The antiviral efficacy of the compounds was expressed as the IC50, that is the concentration of the compounds required to reduce the number of plaques to 50% in the control (virus-infected, but […]).

[16] = system: HeLa (Ohio strain)cells; assay: Cytotoxicity (MTT, without virus), HeLa(Ohio); details: HeLa(Ohio), no virus, incubated for 4 days
[17] = system: HeLa cells; assay: Cytotoxicity (MTT, without virus), HeLa; details: HeLa, no virus, incubated for 4 days
[18] = system: HRV13 (353); assay: Anti-rhinovirus spectrum (MTT), HRV13; assay type: cell-based, human rhinovirus; parameters: Anti-Rhinovirus activity, HRV13: unit not given here; details: HRV13
[19] = system: Human rotavirus (HROV, Odelia); assay: In vitro anti-rotavirus activity (plaque reduction), HRoV; assay type: cell-based; details: MA104 cells, four days after infection
Experimental: as §1

[20] = system: HRV10 (204-CV14); assay: Anti-rhinovirus spectrum (MTT), HRV10; assay type: cell-based, human rhinovirus; parameters: Anti-Rhinovirus activity, HRV10: unit not given here; details: HRV10
[21] = system: clinical isolate (89229T); assay: microbe, parasite or virus in culture; assay type: cell-based, human rhinovirus; parameters: Anti-Rhinovirus activity, Clinical isolated strain: unit not given here; details: Clinical isolated strain
[22] = system: HRV3(FEB); assay: Anti-rhinovirus spectrum (MTT), HRV3; assay type: cell-based, human rhinovirus; parameters: Anti-Rhinovirus activity, HRV3: unit not given here; details: HRV3
[23] = system: HRV32 (363); assay: Anti-rhinovirus spectrum (MTT), HRV32; assay type: cell-based, human rhinovirus; parameters: Anti-Rhinovirus activity, HRV32: unit not given here; details: HRV32
[24] = system: coxsackievirus type A7 (CA7); assay: In vitro anti-picornavirus activity (MTT), CA7; assay type: cell-based; details: HeLa-S3 cells, MTT method, 37° C.
[25] = system: HRV50(A2#58); assay: Anti-rhinovirus spectrum (MTT), HRV50; assay type: cell-based, human rhinovirus; parameters: Anti-Rhinovirus activity, HRV50: unit not given here; details: HRV50
[26] = system: HRV61 (6669-CV39); assay: Anti-rhinovirus spectrum (MTT), HRV61; assay type: cell-based, human rhinovirus; parameters: Anti-Rhinovirus activity, HRV61: unit not given here; details: HRV61
[27] = system: HRV 89 (41617-Gallo); assay: Anti-rhinovirus activity (MTT), HRV89; assay type: cell-based, human rhinovirus; parameters: Anti-Rhinovirus activity, HRV89: unit not given here
[28] = system: HRV 2 (HGP); assay: Anti-rhinovirus activity (MTT), HRV2; assay type: cell-based, human rhinovirus; parameters: Anti-Rhinovirus activity, HRV2: unit not given here
[29] = system: HRV5; assay: Anti-rhinovirus spectrum (MTT), HRV5; assay type: cell-based, human rhinovirus; parameters: Anti-Rhinovirus activity, HRV5: unit not given here; details: HRV5
[30] = system: echovirus type 11 (Echo 11, Gregory); assay: In vitro anti-picornavirus activity (MTT), Echo 11; assay type: cell-based; details: HeLa-S3 cells, MTT method, 37° C.
[31] = system: HRV8(MRH); assay: Anti-rhinovirus spectrum (MTT), HRV8; assay type: cell-based, human rhinovirus; parameters: Anti-Rhinovirus activity, HRV8: unit not given here; details: HRV8
[32] = HeLa (Ohio strain) cells, MTT method, 33° C.

Compound: CCc1ccc2c(c1)Cc1c-2n(CC)c2ccc(C(C)C)cc2c1=O [Compound B9, 2.5-Diethyl-8-isopropyl-5,10-dihydro-11H-indeno[1,2-b]quinolin-10-one]
- Anti-Rhinovirus activity, HRV21 [1]: 0.16
- Anti-Rhinovirus activity, HRV36 [2]: 0.16
- Anti-Rhinovirus activity, HRV1B ([3]; HRV1B): 0.25
- IC50 HRV1B [3, 32]: 0.25 µg/mL (≈ 0.754 µM)
- Anti-Rhinovirus activity, HRV33 [4]: 0.094
- Anti-Rhinovirus activity, HRV16 [5]: 0.47
- Anti-Rhinovirus activity, HRV39 [6]: 0.20
- Anti-Rhinovirus activity, HRV31 [7]: 0.15
- Anti-Rhinovirus activity, HRV41 [8]: 0.13
- IC50 CB4 [9]: 0.56 µg/mL (≈ 1.69 µM)
- IC50 Polio 1 [10]: 0.18 µg/mL (≈ 0.543 µM)
- Anti-Rhinovirus activity, HRV1A ([11]; HRV1A): >1.0
- IC50 HRV 1A [11, 32]: >1 µg/mL
- Anti-Rhinovirus activity, HRV29 [12]: 0.19
- Anti-Rhinovirus activity, HRV14 ([13]; HRV14): 0.58
- IC50 HRV 14 [13, 32]: 0.58 µg/mL (≈ 1.75 µM)
- Cytotoxicity CC50 HeLa-S3 [14]: >1 µg/mL
- Anti-rotavirus activity IC50 SRoV(SA11) [15]: 0.59 µg/mL
- Cytotoxicity CC50 HeLa(Ohio) [16]: >1 µg/mL
- Cytotoxicity CC50 HeLa [17]: >1 µg/mL
- Anti-Rhinovirus activity, HRV13 [18]: 0.14
- Anti-rotavirus activity IC50 HRoV(Odelia) [19]: 0.56 µg/mL
- Anti-Rhinovirus activity, HRV10 [20]: 0.47
- Anti-Rhinovirus activity, Clinical isolated strain [21]: 0.31
- Anti-Rhinovirus activity, HRV3 [22]: 0.23
- Anti-Rhinovirus activity, HRV32 [23]: 0.13
- IC50 CA7 [24]: 0.71 µg/mL (≈ 2.14 µM)
- Anti-Rhinovirus activity, HRV50 [25]: 0.13
- Anti-Rhinovirus activity, HRV61 [26]: 0.16
- Anti-Rhinovirus activity, HRV89 ([27]; HRV89): 0.21
- IC50 HRV89 [27, 32]: 0.21 µg/mL (≈ 0.634 µM)
- Anti-Rhinovirus activity, HRV2 ([28]; HRV2): 0.20
- IC50 HRV2 [28, 32]: 0.20 µg/mL (≈ 0.603 µM)
- Anti-Rhinovirus activity, HRV5 [29]: 0.17
- IC50 Echo 11 [30]: 0.18 µg/mL (≈ 0.543 µM)
- Anti-Rhinovirus activity, HRV8 [31]: 0.15
